Laboratory results taken from patent publication US12662469B2 (SIRONAX LTD, priority 2018, dated 2026).
Where two headings read alike, the source gives them in different places.

Key:
Human RIP1 kinase = target: T1, Human RIP1 kinase (Homo sapiens, UniProt Q13546); experiment: Human RIP1 kinase assay; assay type: biochemical; conditions: representative, exemplary data
T1 sequence (Q13546 1-671): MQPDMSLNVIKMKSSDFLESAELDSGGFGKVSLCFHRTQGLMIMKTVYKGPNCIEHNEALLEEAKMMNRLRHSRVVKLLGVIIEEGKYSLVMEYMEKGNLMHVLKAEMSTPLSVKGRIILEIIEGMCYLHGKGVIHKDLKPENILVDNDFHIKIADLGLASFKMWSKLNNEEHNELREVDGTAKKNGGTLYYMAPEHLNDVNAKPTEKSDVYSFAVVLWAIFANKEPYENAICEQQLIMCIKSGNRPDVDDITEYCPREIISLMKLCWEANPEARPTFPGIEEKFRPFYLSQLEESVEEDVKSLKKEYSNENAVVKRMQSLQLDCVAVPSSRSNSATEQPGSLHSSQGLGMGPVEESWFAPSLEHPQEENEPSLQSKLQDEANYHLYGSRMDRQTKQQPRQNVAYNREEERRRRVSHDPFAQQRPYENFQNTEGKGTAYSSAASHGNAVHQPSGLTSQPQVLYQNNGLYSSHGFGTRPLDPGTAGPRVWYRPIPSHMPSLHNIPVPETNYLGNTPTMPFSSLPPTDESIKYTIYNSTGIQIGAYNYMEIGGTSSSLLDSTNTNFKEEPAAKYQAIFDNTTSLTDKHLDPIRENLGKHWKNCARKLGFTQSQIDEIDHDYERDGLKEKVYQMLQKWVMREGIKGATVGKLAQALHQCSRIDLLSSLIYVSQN

Cell Necrosis = experiment: Cell necrosis assay / cell viability assay (necrosis inhibitor activity); assay type: cell-based
[1] = necrosis inhibitor activity, EC data for 14-191 extrapolated, read-out: EC50
[2] = representative, exemplary data, read-out: Cell viability assay, EC50

Row | Compound | IC50 (Human RIP1 kinase) [nM] | EC50 (Cell Necrosis; [1]) [nM] | EC50 (Cell Necrosis; [2]) [nM]
1 | O=C(N1CC(Cc2cccc(F)c2)C1)N1N=CCC1c1ccccc1 (stereo not drawn) [Compound 41, (3-(3-fluorobenzyl)azetidin-1-yl)(5-phenyl-4,5-dihydro-1H-pyrazol-1-yl)methanone] | < 100 | 1 to 1000 | 1 to 100
2 | O=C(N1CC[C@@H](Oc2ccccc2)C1)N1N=CCC1c1ccccc1 (single isomer, unassigned) [Compound 26A] | < 100 | 1 to 1000 | 1 to 1000
